Reference: patent US7423159B2, “Agent for preventing or treating neuropathy” (Takeda Pharmaceutical Company Limited, priority 2002, dated 2008)

SMILES | melting point
Cn1ncc(/C=C/C(=O)Nc2ccc(Cn3nnc4ccccc43)cc2)c1-c1ccc(F)cc1 [Example 177, (2E)-N-[4-(1H-1,2,3-Benzotriazol-1-ylmethyl)phenyl]-3-[5-(4-fluorophenyl)-1-methyl-1H-pyrazol-4-yl]acrylamide] | 226 to 227 °C
Cn1ncc(/C=C/C(=O)Nc2ccc(Cn3cc4ccccc4n3)cc2)c1-c1ccc(F)cc1 [Example 178, (2E)-3-[5-(4-Fluorophenyl)-1-methyl-1H-pyrazol-4-yl]-N-[4-(2H-indazol-2-ylmethyl)phenyl]acrylamide] | 231 to 232 °C
Cn1ncc(/C=C/C(=O)Nc2ccc(Cn3nc4ccccc4n3)cc2)c1-c1ccc(F)cc1 [Example 179, (2E)-N-[4-(2H-1,2,3-Benzotriazol-2-ylmethyl)phenyl]-3-[5-(4-fluorophenyl)-1-methyl-1H-pyrazol-4-yl]acrylamide] | 222 to 223 °C
CCOC(=O)c1ccc(NC(=O)/C=C/c2cnn(C)c2-c2ccc(F)cc2)cc1 [Example 180, ethyl 4-({(2E)-3-[5-(4-fluorophenyl)-1-methyl-1H-pyrazol-4-yl]prop-2-enoyl}amino)benzoate] | 202 to 203 °C
Cn1ncc(/C=C/C(=O)Nc2ccc(S(N)(=O)=O)cc2)c1-c1ccc(F)cc1 [Example 181, (2E)-N-[4-(Aminosulfonyl)phenyl]-3-[5-(4-fluorophenyl)-1-methyl-1H-pyrazol-4-yl]acrylamide] | 300 to 305 °C (dec.)
Cn1ncc(/C=C/C(=O)Nc2ccc(C(N)=O)cc2)c1-c1ccc(F)cc1 [Example 183, 4-({(2E)-3-[5-(4-Fluorophenyl)-1-methyl-1H-pyrazol-4-yl]prop-2-enoyl}amino)benzamide] | 276 to 278 °C
Cn1ncc(/C=C/C(=O)Nc2ccccc2CO)c1-c1ccc(F)cc1 [Example 184, (2E)-3-[5-(4-Fluorophenyl)-1-methyl-1H-pyrazol-4-yl]-N-[2-(hydroxymethyl)phenyl]acrylamide] | 119 to 120 °C
Cn1ncc(/C=C/C(=O)Nc2ccc(CCn3cccn3)cc2)c1-c1ccc(F)cc1 [Example 186, (2E)-3-[5-(4-Fluorophenyl)-1-methyl-1H-pyrazol-4-yl]-N-{4-[2-(1H-pyrazol-1-yl)ethyl]phenyl}acrylamide] | 205 to 206 °C
Cn1ncc(/C=C/C(=O)Nc2ccc(CCn3ccnc3)cc2)c1-c1ccc(F)cc1 [Example 187, (2E)-3-{5-(4-Fluorophenyl)-1-methyl-1H-pyrazol-4-yl}-N-{4-[2-(1H-imidazol-1-yl)ethyl]phenyl}acrylamide] | 160 to 162 °C
CCOC(=O)CCC(=O)NCc1ccc(NC(=O)/C=C/c2cnn(C)c2-c2ccc(F)cc2)cc1 [Example 188, Ethyl 4-{[4-({(2E)-3-[5-(4-fluorophenyl)-1-methyl-1H-pyrazol-4-yl]prop-2-enoyl}amino)benzyl]amino}-4-oxobutanoate] | 195 to 197 °C
CC(=O)NCc1ccc(NC(=O)/C=C/c2cnn(C)c2-c2ccc(F)cc2)cc1 [Example 189, (2E)-N-{4-[(Acetylamino)methyl]phenyl}-3-[5-(4-fluorophenyl)-1-methyl-1H-pyrazol-4-yl]acrylamide] | 233 to 234 °C
CCc1nccn1Cc1ccc(NC(=O)/C=C/c2cnn(C)c2-c2ccc(F)cc2)cc1 [Example 191, (2E)-N-{4-[(2-Ethyl-1H-imidazol-1-yl)methyl]phenyl}-3-[5-(4-fluorophenyl)-1-methyl-1H-pyrazol-4-yl]acrylamide] | 237 to 238 °C
Cn1ncc(/C=C/C(=O)Nc2ccc(Cn3ccnn3)cc2)c1-c1ccc(F)cc1 [Example 194, (2E)-3-[5-(4-Fluorophenyl)-1-methyl-1H-pyrazol-4-yl]-N-[4-(1H-1,2,3-triazol-1-ylmethyl)phenyl]acrylamide] | 252 to 253 °C
Cn1ncc(/C=C/C(=O)Nc2ccc(Cn3nccn3)cc2)c1-c1ccc(F)cc1 [Example 196, (2E)-3-[5-(4-Fluorophenyl)-1-methyl-1H-pyrazol-4-yl]-N-[4-(2H-1,2,3-triazol-2-ylmethyl)phenyl]acrylamide] | 178 to 179 °C
